Experimental data taken from patent publication US11643428B2, “Therapeutic drug for neurodegenerative disease and application thereof” (SHANGHAI PHARMACEUTICALS HOLDING CO., LTD., priority 2018, dated 2023).

Test system: MPTP mice model
Test: Pole-climbing test in MPTP model
Type: in vivo, mouse
Settings: PL201+MPTP vs NS+MPTP group, 50 mg intragastrically once a day, day 3 of the experiment
Experimental: The mice were randomly divided into 4 groups: a group in which the mice was administrated with normal saline (NS), a MPTP model group in which the mice was intragastrical administrated with normal saline ([…]), a group in which the mice was intragastrical administrated with 50 mg of compound PL201 (PL201), and a MPTP model group in which the mice was intragastrical administrated with compound PL201 (PL201+MPTP).
11 animals were set in the group in which the mice was administrated with normal saline (NS), 14 animals were set in the MPTP model group in which the mice was intragastrical administrated with normal saline (NS+MPTP), 4 animals were set in the group in which the mice was intragastrically administrated with 50 mg of compound PL201 (PL201), 15 animals were set in the MPTP model group in which the mice was intragastrically administrated with the compound PL201 (PL201+MPTP). […]
On Day 3 of the experiment, the pole-climbing test of mice was carried out to evaluate the motor coordination ability of the mice. […] The time taken by the mice to turn from head upwards to head downwards completely was recorded as the time to turn around, and the time taken by the mice from moving downwards to all limbs reaching the bottom of the pole was recorded as the time to climb down. Time exceeded 30 seconds was recorded as 30 seconds. […]

COc1cc(/C=C/C(=O)OC2OC(C)C(O)C(O)C2O)ccc1O [PL201, (α-L-rhamnopyranosyl) ferulic acid ester]
time to climb down: reduced | time to turn around: reduced
